Residues, ends and D or L forms follow the SMILES beside them. *: point of attachment. X1 = O=C1CCC(N2C(=O)c3cccc(*)c3C2=O)C(=O)N1; PEG4 = NCCOCCOCCOCCOCCC(=O)O
What was measured:
[1] = tested on: CD4+ and CD8+ lymphocytes; experiment: Ex vivo restimulation of splenocytes/lymph nodes from treated tumor-bearing mice with CA9 peptide, flow cytometry; assay type: in vivo, Balb/C mice; details: spleen and lymph nodes harvested on day 28, restimulated ex vivo with CA9 peptide
Protocol: FIGS. 4A-4D depict that PF enhanced the antitumor immunity provided by αPD1 or mTOR inhibition in mice. Mice tumors were established by injecting RENCA-CA9 cells subcutaneously in the flank (day 0) of Balb/C mice (6-8 mice per group). PF was administered i.p., twice a week, throughout the experiment, starting on day 10 (FIGS. 4A and 4C). αPD1 was administered i.p., twice a week, throughout the experiment, starting on days 5 (FIG. 4A). Splenocytes were harvested, and restimulated ex vivo with mouse CA9 peptide. The splenocytes were assessed by flow cytometry for Granzyme B, IFNγ or TNFα after gating on CD4 or CD8 (FIG. 4B). In a similar mouse tumor growth experiment, temsirolimus was administered i.p. on day 10, every other day, for 14 days (FIG. 4C). Similar to FIG. 4B, splenocytes were harvested, restimulated and analyzed (FIG. 4D). Representative results are shown for experiments conducted at least twice. […]
FIGS. 6A-6C depict that PF enhances immune activation and CD8+ memory lymphocyte formation. […] Spleen and lymph nodes were harvested on day 28 and restimulated ex vivo with CA9 peptide and assessed by flow cytometry (FIGS. 6B and 6C). CD8+ lymphocytes treated with PF had increased activation as measured by IFNγ or TNFα (FIG. 6B). […]
To assess T cells in mice, CD4+ FoxP3+ cells from serial peripheral blood draws were assessed by flow cytometry. […]

[2] = tested on: RENCA tumors; experiment: Subcutaneous RENCA tumor growth in mice; assay type: in vivo; details: s.c. RENCA in Balb/C mice, i.p. treatment from day 10, vs saline
Protocol: Mice: Balb/C mice, 5-8 weeks old, were purchased from Jackson laboratory (Ellsworth, Maine) and housed under pathogen free conditions. All experiments involving animals followed federal and state standards, which include the federal Animal Welfare Act and the NIH guide for the care and use of laboratory animals. The RENCA tumors were generated by subcutaneously injecting 2×10^5 tumor cells into the frank. The day tumor cells were injected was considered day 0. PF (0.1 mmol), PC (0.1 mmol) or P60 (100 ug) was administered i.p. twice a week starting on day 10; αPD1 (200 μg) was administered i.p. twice a week starting on day 5; temsirolimus (15 μg) was administered i.p. every other day, starting on day 10. All drugs were administered throughout the experimental course unless indicated. CD8 cells were depleted with a one-time αCD8 (200 μg) i.p. administration on day 2.
In cancer, Tregs can suppress the antitumor immune response, which is primarily mediated by CD8+ lymphocytes. Therefore, PF was administered to mice to enhance antitumor immunity and suppress growth of syngeneic mouse kidney cancer, which is considered an immunoresponsive cancer type. Mice tumors were established by injecting RENCA cells subcutaneously in the flank of Balb/C mice (5-7 mice per group). RENCA cells were injected subcutaneously to establish palpable tumors, and 10 days later mice were treated i.p., twice a week throughout the experiment, with PF, PC, P60 or Saline (FIG. 3D). Pomalidomide conjugated to (PEG)4 (PROTAC-control; PC) and P60 served as controls. […] In summary, PF decreased the immunosuppressive function of Tregs in vitro and decreased tumor growth in mice. […]
All immunotherapies, particularly when multi-drug combinations are involved, may have off-target effects. For example, drugs may have direct effects on the tumor, inhibiting tumor proliferation or inducing tumor apoptosis. Mice tumors were established by injecting RENCA cell subcutaneously in the flank of Balb/C mice (6-8 mice per group). 10 days later, mice were treated with PF twice per week. CD8 lymphocytes were depleted with αCD8 administered i.p. 2 days after injection of tumor cells. Mice in indicated groups received i.p. αPD1, twice a week, starting day 5 (FIG. 5A). Mice in indicated groups received i.p. temsirolimus every other day for 14 days, starting on days 10 (FIG. 5B). Tumor growth was monitored in these groups. […]

[3] = tested on: RENCA cells; experiment: RENCA cell growth in vitro; assay type: cell-based, mouse; details: 0.002, 0.02, 0.2, or 2 μM, 48 hours
Protocol: That is, the tumor in the P60 treated tumor grew at the same rate as the saline treated mice. Further, RENCA cells (20×10^4/well) were seeded in 12 well plates and treated with PF or PC at 0.002, 0.02, 0.2, or 2 μM. […] The first approach involved depleting CD8+ lymphocytes, which are known to mediate antitumor immunity.

With CSCC[C@H](NC(=O)[C@H](C)NC(=O)[C@H](Cc1ccccc1)NC(=O)[C@H](Cc1ccccc1)NC(=O)[C@@H]1CCCN1C(=O)[C@H](Cc1c[nH]c2ccccc12)NC(=O)[C@H](CCSC)NC(=O)[C@H](CCCCN)NC(=O)[C@H](CCCNC(=N)N)NC(=O)[C@H](Cc1ccccc1)NC(=O)[C@H](CO)NC(=O)[C@H](CCC(N)=O)NC(=O)[C@H](Cc1ccccc1)NC(=O)[C@H](CC(=O)O)NC(=O)[C@H](CCCNC(=N)N)NC(=O)CCOCCOCCOCCOCCNc1cccc2c1C(=O)N(C1CCC(=O)NC1=O)C2=O)C(=O)O (stereo partly shown) [PF, Pomalidomide-PEG4-RDFQSFRKMWPFFAM] ({X1-PEG4}-RDFQSFRKMWPFFAM-OH) the “memory markers (CD62L, CD44 and Eomes) in CD8+ cells” value [1] was “displayed a memory phenotype with increase in CD62L, CD44 and Eomes expression”, the “tumor growth, single agent” value [2] was “produced a decrease in tumor growth” and the “tumor growth, single agent” value ([2]; listed as P-FoxP3) was “appeared to decrease tumor growth compared to saline control”. The “RENCA growth in vitro (cell count)” value [3] was “did not alter RENCA growth in vitro”.
